Measurements taken from PMC7880690, “Chemical genetics and proteome-wide site mapping reveal cysteine MARylation by PARP-7 on immune-relevant protein targets” (eLife, 2021).

How the values were obtained:
PARP1FL = PARP1FL (Homo sapiens, UniProt P09874); assay: ADP-ribosylation plate assay, PARP1FL
PARP15cat = biological target: T1, PARP15cat (Homo sapiens, UniProt Q460N3); assay: ADP-ribosylation plate assay, PARP15cat
T1 sequence (Q460N3 482-678 limits assumed): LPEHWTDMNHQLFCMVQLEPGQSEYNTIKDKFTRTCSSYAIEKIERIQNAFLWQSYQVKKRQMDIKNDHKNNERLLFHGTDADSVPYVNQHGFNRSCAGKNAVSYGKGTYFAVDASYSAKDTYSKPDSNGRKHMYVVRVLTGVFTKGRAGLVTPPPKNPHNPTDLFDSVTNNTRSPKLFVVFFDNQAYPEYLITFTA

[1] = biological target: T2, IG-PARP-12 (I660G PARP-12) (Homo sapiens, UniProt Q9H0J9, I660G); assay: Labeling by orthogonal NAD+ analogs with PARP-12 I660G mutant; type: biochemical; conditions: compared to 5-Bn-6-a-NAD+
T2 construct: GFP; expressed in transfected cells
T2 sequence (Q9H0J9 whole entry I660G): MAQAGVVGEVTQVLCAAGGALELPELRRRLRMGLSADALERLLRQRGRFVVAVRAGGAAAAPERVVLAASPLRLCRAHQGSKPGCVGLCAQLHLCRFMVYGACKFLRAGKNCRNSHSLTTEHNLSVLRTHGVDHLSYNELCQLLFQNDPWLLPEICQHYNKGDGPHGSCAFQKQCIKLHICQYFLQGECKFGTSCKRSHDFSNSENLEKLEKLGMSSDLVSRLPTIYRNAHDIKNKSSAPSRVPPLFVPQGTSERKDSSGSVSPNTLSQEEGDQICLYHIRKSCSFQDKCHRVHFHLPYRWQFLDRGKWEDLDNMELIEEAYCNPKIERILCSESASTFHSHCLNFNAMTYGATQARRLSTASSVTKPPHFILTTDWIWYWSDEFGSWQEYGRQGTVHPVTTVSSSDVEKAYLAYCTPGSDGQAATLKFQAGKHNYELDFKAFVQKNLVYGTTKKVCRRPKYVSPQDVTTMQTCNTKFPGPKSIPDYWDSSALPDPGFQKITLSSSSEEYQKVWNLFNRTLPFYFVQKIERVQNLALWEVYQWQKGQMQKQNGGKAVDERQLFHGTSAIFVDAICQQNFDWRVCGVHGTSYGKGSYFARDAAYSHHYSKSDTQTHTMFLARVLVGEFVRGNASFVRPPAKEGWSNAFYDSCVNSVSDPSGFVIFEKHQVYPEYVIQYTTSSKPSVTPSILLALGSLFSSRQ
Text: (§1) Figure 1. A chemical genetic strategy for identifying the direct MARylation targets of PARP-7. (a) Schematic of chemical genetic approach for identifying direct targets of PARP-7. (b) Crystal structure of human PARP1 bound to the non-hydrolyzable NAD^+ analog benzamide adenine dinucleotide (BAD). PDB: 6bhv. […] (c) Chemical structure of the clickable, orthogonal NAD^+ analogs. 5-Bn-2-e-NAD^+ is the optimized substrate for the floor position engineered PARP-7, IG-PARP-7. 5-Bn-6-a-NAD^+ was used in our previous studies by other floor position engineered PARPs (e.g. PARP14). (d) 5-Bn-2-e-NAD^+ is an efficient substrate for IG-PARP-7. HEK293T cells were transfected with either GFP-WT-PARP-7 (control) or GFP-IG-PARP-7. Cell lysates were prepared and incubated with either 5-Bn-2-e-NAD^+ or 5-Bn-6-a-NAD^+ (100 µM). Following copper-catalyzed click chemistry with biotin-azide, proteins were resolved by SDS-PAGE and biotinylated proteins were detected by Western blot detection using Streptavidin-HRP. Biotinylated proteins represent direct MARylation targets of PARP-7. Figure 1—figure supplement 1. Enrichment of PARP-7 MARylation targets and labeling of PARP-12 IG targets using a chemical genetic approach. (a) Labeling of PARP-7 MARylation targets was performed as described in Figure 1. Neutravidin agarose was used to enrich biotinylated proteins (i.e. MARylation targets). […]

GFP-WT-PARP-7 = biological target: T3, GFP-WT-PARP-7 (Homo sapiens, UniProt Q7Z3E1); assay: Labeling by orthogonal NAD+ analogs in HEK 293T lysates expressing GFP-WT-PARP-7; type: biochemical; conditions: HEK 293 T cell lysates, 100 µM NAD+ analog
T3 construct: expressed in transfected cells; host or cells: HEK 293T
T3 sequence (Q7Z3E1 1-657): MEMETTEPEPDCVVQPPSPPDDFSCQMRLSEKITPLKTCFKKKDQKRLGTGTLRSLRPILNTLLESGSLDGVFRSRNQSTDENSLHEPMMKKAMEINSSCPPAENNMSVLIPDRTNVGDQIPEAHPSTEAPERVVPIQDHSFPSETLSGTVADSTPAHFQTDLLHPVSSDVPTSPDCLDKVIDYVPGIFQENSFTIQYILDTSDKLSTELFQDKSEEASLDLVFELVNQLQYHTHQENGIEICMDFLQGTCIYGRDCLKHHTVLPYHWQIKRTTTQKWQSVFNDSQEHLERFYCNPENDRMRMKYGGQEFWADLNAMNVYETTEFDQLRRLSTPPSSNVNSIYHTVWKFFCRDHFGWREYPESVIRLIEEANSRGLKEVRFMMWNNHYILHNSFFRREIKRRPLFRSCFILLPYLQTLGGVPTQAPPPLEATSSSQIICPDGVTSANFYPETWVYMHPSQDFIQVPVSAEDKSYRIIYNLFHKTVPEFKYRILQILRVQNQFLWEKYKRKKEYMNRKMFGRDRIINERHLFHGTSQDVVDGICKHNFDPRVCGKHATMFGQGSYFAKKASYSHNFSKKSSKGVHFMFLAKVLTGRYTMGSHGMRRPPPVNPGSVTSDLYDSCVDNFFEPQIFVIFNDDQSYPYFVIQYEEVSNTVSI
Text: as §1

PARP1FL, sequence (P09874 whole entry): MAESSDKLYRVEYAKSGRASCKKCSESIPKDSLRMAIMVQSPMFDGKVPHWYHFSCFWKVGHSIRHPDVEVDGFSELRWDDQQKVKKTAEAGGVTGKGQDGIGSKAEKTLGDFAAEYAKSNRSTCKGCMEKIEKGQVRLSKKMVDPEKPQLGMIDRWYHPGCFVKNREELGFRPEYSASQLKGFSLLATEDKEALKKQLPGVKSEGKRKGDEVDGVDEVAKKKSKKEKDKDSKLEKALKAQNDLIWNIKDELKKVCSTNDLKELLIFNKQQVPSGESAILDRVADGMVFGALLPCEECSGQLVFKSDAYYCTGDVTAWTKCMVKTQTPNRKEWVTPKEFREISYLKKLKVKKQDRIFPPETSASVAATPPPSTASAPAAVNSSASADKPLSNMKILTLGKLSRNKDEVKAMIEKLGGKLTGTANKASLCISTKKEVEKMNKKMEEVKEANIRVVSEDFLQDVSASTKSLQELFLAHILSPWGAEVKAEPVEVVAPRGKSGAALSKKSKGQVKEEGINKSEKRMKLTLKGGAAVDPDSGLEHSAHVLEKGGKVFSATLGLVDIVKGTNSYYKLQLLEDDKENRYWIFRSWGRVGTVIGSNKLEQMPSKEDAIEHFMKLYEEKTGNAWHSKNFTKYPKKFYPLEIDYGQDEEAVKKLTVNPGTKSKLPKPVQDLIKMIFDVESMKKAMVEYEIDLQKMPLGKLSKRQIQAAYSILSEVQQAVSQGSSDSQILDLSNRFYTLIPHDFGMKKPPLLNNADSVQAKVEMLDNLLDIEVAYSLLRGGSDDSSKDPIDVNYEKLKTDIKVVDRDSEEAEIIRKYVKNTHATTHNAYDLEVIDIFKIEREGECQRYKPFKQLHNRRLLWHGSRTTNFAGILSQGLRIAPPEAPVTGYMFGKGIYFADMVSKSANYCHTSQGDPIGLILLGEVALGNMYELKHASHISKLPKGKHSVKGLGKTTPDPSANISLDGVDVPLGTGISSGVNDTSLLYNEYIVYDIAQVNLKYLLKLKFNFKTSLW

SMILES	IC50 (PARP1FL) [nM]	IC50 (PARP15cat) [nM]	substrate for IG-PARP-12 [1]	substrate for GFP-WT-PARP-7 (GFP-WT-PARP-7)
N#Cc1ccc(N2CCN(C(=O)c3cc(Cc4n[nH]c(=O)c5ccccc45)ccc3F)CC2)nc1 [Phthal01, 6-(4-(2-fluoro-5-((4-oxo-3,4-dihydrophthalazin-1-yl)methyl)benzoyl)piperazin-1-yl)nicotinonitrile]	21	2000 ± 300	–	–
C#Cc1nc(N)c2ncn(C3OC(COP(=O)(O)OP(=O)([O-])OCC4OC([n+]5cc(Cc6ccccc6)cc(C(N)=O)c5)C(O)C4O)C(O)C3O)c2n1 (stereo not shown) [5-Bn-2-e-NAD^+, 5-benzyl-2-ethynyl-NAD^+]	–	–	better substrate	not a substrate
